The values that follow come from patent publication US12215389B2, “Compositions for detecting epigenetic modifications” (EXACT SCIENCES CORPORATION, priority 2007, dated 2025).

The series relates to methylated gene promoters in FFPE tissue DNA. Kind of series: Real-time MSP on colon tissue samples. Also noted: species or system human. The conditions noted are these: for Specificity (%) / Sensitivity (%): 50 cases (adenoma + carcinoma) vs 39 controls, tissue. As for the experimental part:
Real-time MSP was applied on a 7900HT fast real-time PCR system (Applied Biosystems). 2.4 μl of the modified DNA (equivalent to 2.5 μg unconverted DNA) was added to a PCR mix (total volume 12 μl) containing buffer (16.6 mM (NH4)2SO4, 67 mM Tris (pH 8.8), 6.7 mM MgCl2, 10 mM β-mercaptoethanol), dNTPs (5 mM), forward primer (6 ng), reverse primer (18 ng), molecular beacon (0.16 μM), BSA (0.1 μg), and Jumpstart DNA Taq polymerase (0.4 units; Sigma Aldrich). Cycle program used was as follows: 5 minutes 95° C., followed by 45 cycles of 30 seconds 95° C., 30 seconds 57° C. (51° C. for APC), and 30 seconds 72° C., followed by 5 minutes 72° C. A standard curve (2×106—20 copies) was included to determine copy numbers of unknown samples by interpolation of their Ct values to the standard curve.
Marker selection in colon tissue: Based on re-expression, 224 different gene assays representing 145 gene promotors were tested on the Base5 methylation profiling platform (data not shown, see reference 1 for details). The 37 most differentially methylated gene sequences assessing 29 gene promoters were validated on retrospectively collected tumors from 65 colorectal cancer patients (all stages) and 74 distant resection ends (histopathologically normal) using real-time MSP. Several markers reliably detected CRC in those tissue samples (data not shown). The results were confirmed on an independent test set containing 39 tissue controls (non-cancerous), 34 carcinomas and 16 adenomas. Several combinations of the tested markers reliably detected CRC with high specificity and sensitivity.
The ten best performing markers GATA5, GATA4, SFRP1, SFRP2, APC, MGMT, NDRG4, OSMR, JPH3 and ADAM23 were validated with primer sets and beacon probes as specified in Table 24. In addition to the colon test genes, the independent reference gene β-Actin (ACT) was also measured. The ratios between the colon test genes and ACT were calculated, and are the test result of the assay.
Marker candidates identified by re-expression were screened using 37 real-time methylation specific PCR (real-time MSP) assays. These assays were used to assess the methylation status of 29 gene promoters in 293 formalin-fixed paraffin-embedded (FFPE) tissue samples collected from various clinics. Samples included 99 carcinomas of various stages, 16 adenomas, 63 samples from patients with cancer other than CRC (20 breast [stages I-III], 22 bladder [stages I-III], 21 lung [stages I and II]), 39 samples from patients with no evidence of cancer and 76 distant resection ends (histopathologically normal) from CRC patients. These samples were divided into training and independent test sets, and used to select the gene methylation assays best able to discriminate between cancerous and non-cancerous samples. The training set included retrospectively collected tumors from 65 colorectal cancer patients (all stages) and 74 distant resection ends. Using the 10 best performing genes the results were confirmed on an independent test set containing 59 samples from patients with cancer other than CRC, 39 non-cancerous controls and 50 cancer cases (34 carcinomas and 16 adenomas).
The individual performance of the 10 best performing tissue markers OSMR, SFRP1, GATA4, SFRP2, NDRG4, ADAM23, GATA5, MGMT, APC and JPH3 is shown in FIG. 7, when the analytical cut-off was set to give 100% specificity, except for JPH3 where a specificity of 95% was obtained (based on the 39 non-cancerous controls). In addition to the colon test genes, the independent reference gene β-Actin (ACT) was also measured. The ratios between the colon test genes and ACT were calculated, and are the test result of the assay.

Where [1] appears, read: 16 adenoma tissue samples vs 39 controls.
[2] abbreviates: 34 carcinoma tissue samples vs 39 controls.
Setting [3] is: second cut off ratio, between ( ).

As to “GATA5 (DNA AGTTCGTTTTTAGGTTAGTTTTCGGC; listed as DNA, chemistry not given here)”, the “Specificity (%)” value was determined as 100%. For the same substance, under setting [1], the Sensitivity is reported as 63% and the Specificity amounted to 100%. In addition, under setting [2], the Sensitivity is 53% and the Specificity turned out to be 100%. Further, the “Sensitivity (%)” value (first cut off ratio) turned out to be 56%. The “Sensitivity (%)” value under setting [3] is recorded as “(66) %”.

As for “SFRP1 (DNA TGTAGTTTTCGGAGTTAGTGTCGCGC; listed as DNA, chemistry not given here)”, the “Specificity (%)” value was 100%. Under setting [1], the Sensitivity is listed as 88% and the Specificity was found to be 100%. Under setting [2], the Sensitivity is listed as 82% and the Specificity stood at 100%. Also, where the note is “first cut off ratio”, the “Sensitivity (%)” value is listed as 84%. The “Sensitivity (%)” value under setting [3] is “(92) %”.
